# Test results taken from patent publication US20040122026A1, “Imidazolidine compounds” (Millennium Pharmaceuticals, Inc., priority 2002, published 2004).
# Target: T1, CXCR3 (Homo sapiens, UniProt P49682)
# T1 construct: expressed in transfected cells; membrane preparation
# T1 sequence (P49682 1-368): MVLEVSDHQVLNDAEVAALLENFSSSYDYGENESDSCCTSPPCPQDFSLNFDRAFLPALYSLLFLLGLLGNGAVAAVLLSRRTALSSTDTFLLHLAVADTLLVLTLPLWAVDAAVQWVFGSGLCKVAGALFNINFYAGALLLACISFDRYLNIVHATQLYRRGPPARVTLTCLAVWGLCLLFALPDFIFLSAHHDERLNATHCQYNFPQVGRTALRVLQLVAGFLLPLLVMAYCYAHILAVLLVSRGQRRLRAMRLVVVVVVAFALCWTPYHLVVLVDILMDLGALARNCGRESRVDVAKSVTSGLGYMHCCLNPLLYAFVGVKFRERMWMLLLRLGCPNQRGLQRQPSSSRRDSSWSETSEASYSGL
# Test: CXCR3/IP-10 radioligand binding (125I-IP-10 competition on CXCR3.L1/2 cell membranes)
# Conditions: test compound 10 μmol/L; 125I-labeled IP-10 binding to CXCR3.L1/2 transfectant cell membranes; results Table 6
# From the text: The activity of the compounds of the present invention can be assessed using a suitable assay, such as a receptor binding assay, a chemotaxis assay, an extracellular acidification assay or a calcium flux assay (see, for example, Hesselgesser et al., J. Biol. Chem., 273(25): 15687-15692 (1998) and WO 98/02151). For example, as described herein, small organic molecule antagonists of CXCR3/IP-10 binding have been identified utilizing cells engineered to express recombinant human CXCR3 (CXCR3.L1/2) and which bind ^125I-IP-10 and chemotax in response to IP-10, Mig, or I-TAC. Specifically, a high through-put receptor binding assay, which monitors ^125I-IP-10 biding to CXCR3.L1/2 cell membranes, was used to identify small molecule antagonists. Binding assays can be performed using other ligands of CXCR3, such as, Mig, and/or I-TAC.
# CXCR3/IP-10 Radioligand Binding:
# CXCR3.L1/2 Membrane Preparation:
# CXCR3.L1/2 cells were pelleted by centrifugation and stored at −80° C. The cells were lysed by thawing and resuspending at about 1.5×10^7 cells/mL in a hypotonic buffer (5 mmol/L HEPES (pH 7.2), 2 mmol/L EDTA, 10 μg/mL each leupeptin, aprotinin, and chymostatin, and 100 μg/mL PMSF (all from Sigma, St. Louis)). Nuclei and cellular debris are removed by centrifugation ([…], at 4° C.) for 10 min. The supernatant was transferred to chilled centrifuge tubes (Nalge, Rochester, N.Y.) and the membrane fraction was recovered by centrifugation (25,000 g at 4° C.) for 45 min. The membrane pellet was resuspended in freezing buffer (10 mmol/L HEPES (pH 7.2), 300 mmol/L Sucrose, 5 μg/mL each of leupeptin, aprotinin, and chymostatin, and 10 μg/mL PMSF). The total protein concentration was determined using a coomassie blue staining protein concentration assay kit (BioRad). The membrane preparations are aliquoted and stored at −80° C. until time of use.
# CXCR3/IP-10 binding was performed in 96-well polypropylene plates (Costar) in a final volume of 0.1 mL of HBB buffer (50 mmol/L Hepes pH 7.4, 1 mmol/L CaCl2, 5 mmol/L MgCl2, 0.02% sodium azide, 0.5% BSA (bovine serum albumin)), containing 1 to 5 μg CXCR3.L1/2 transfectant cell membrane protein and 0.05 to 0.2 nmol/L of ^125I-labeled IP-10 (NEN, Boston, Mass.). Competition binding experiments were performed by including variable concentrations of unlabeled IP-10 or test compound. Nonspecific binding was determined following the addition of a 250 nmol/L unlabelled IP-10. Samples were incubated for 60 min at room temperature, and bound and free tracer (^125I-labeled IP-10) were separated by filtration through 96-well GF/B filterplates presoaked in 0.3% polyethyleneimine. The filters were washed in HBB further supplemented with 0.5 mol/L NaCl, dried, and the amount of bound radioactivity determined by liquid scintillation counting. The competition is presented as the percent specific binding as calculated by 100×[(S−B)/(T−B)], where S is the radioactivity bound for each sample, B is background binding, and T is total bound in the absence of competitors. Duplicates were used throughout the experiments.
Molecule,inhibition at 10 µM,% inhibition at 10 μmol/L
"CCN(CC)Cc1cccc(N(C(=O)CCN2CCN(Cc3cc(C)cc(C)c3)C2=C(C#N)C#N)C(C)C)c1 [Compound 24, N-Isopropyl-N-[3-(diethylaminomethyl)phenyl]-3-[3-(3,5-dimethylbenzyl)-2-dicyanomethylideneimidazolidin-1-yl]propionamide]",90%,–
"CCOC(=O)C1CCN(Cc2cccc(N(C(=O)CCN3CCN(Cc4cc(C)cc(C)c4)C3=C(C#N)C#N)C(C)C)c2)CC1 [Compound 25, N-Isopropyl-N-[3-(4-ethoxycarbonylpiperidinomethyl)phenyl]-3-[3-(3,5-dimethylbenzyl)-2-dicyanomethylideneimidazolidin-1-yl]propionamide]",107%,–
"Cc1cc(C)cc(CN2CCN(CCC(=O)N(c3cccc(CN(CCO)CCO)c3)C(C)C)C2=C(C#N)C#N)c1 [Compound 26, N-Isopropyl-N-[3-(bis(2-hydroxyethyl)aminomethyl)phenyl]-3-[3-(3,5-dimethylbenzyl)-2-dicyanomethylideneimidazolidin-1-yl]propionamide]",93%,–
"Cc1cc(C)cc(CN2CCN(CCC(=O)N(c3cccc(CN(C)CCO)c3)C(C)C)C2=C(C#N)C#N)c1 [Compound 27, N-Isopropyl-N-[3-[(N-(2-hydroxyethyl)-N-methylamino)methyl]phenyl]-3-[3-(3,5-dimethylbenzyl)-2-dicyanomethylideneimidazolidin-1-yl]propionamide]",92%,–
N-Isopropyl-N-[3-(piperidinomethyl)phenyl]-3-[3-(1-naphthalenylmethyl)-2-dicyanomethylidene imidazolidin-1-yl]propionamide [Compound 16],–,95%
